One block for each molecule: values may come before it. Where a SMILES comes first, the peptide text is derived from it. Where no end group is shown, it is not given here. [ ]: non-standard residue; d: D form.
Key:
[1] = tested on: CD14; experiment: LPS binding to CD14 (plate assay with soluble CD14 Ig); details: E. coli AO16 LPS, 2 hours at 4° C., FIG. 14
Experimental: 96-well plates were coated with goat-anti human Ig, soluble CD-1 4 Ig was added, and the plates were incubated overnight at 4° C. The BMS polypeptide, the C-MYCMEM polypeptide, an SV40 NLS polypeptide containing a single SV40 large T-antigen NLS, a c-myc NLS without a translocation sequence (AKRVKL (SEQ ID NO:6)), a control non-NLS polypeptide, 377G, or PBS, were added to the plates and the plates were incubated for 5 min. E. coli AO16 LPS was then added to the plates and the plates were incubated for 2 hours at 4° C. The plates were washed and LPS was detected using 0.5 μg/ml mouse anti-E. coli LPS, followed by goat anti-mouse horseradish peroxidase.

[2] = tested on: 70Z/3 murine leukemia pre-B cells; experiment: LPS-stimulated surface antigen expression (κ Ig light chain, IL-2 receptor, CD45) in 70Z/3 cells; format: cell-based; details: for potency and efficacy of L- versus D-amino acid form, LPS-stimulated κ Ig expression: FIG. 3
Experimental: Expression of κ Ig, CD45, CD40, and the interleukin-2 receptor was assayed using standard enzyme-linked immunosorbent assays ("ELISAs") (see, Coligan et al. (eds.) (1991) Current Protocols in Immunology, Wiley & Sons, p. 2.10 or by FACS staining to measure cell-surface markers as described in Raff (1970) Immunology 19:637). Antibodies form cell surface markers were obtained from Pharmingen Co.
The effect of the SV40MEM polypeptide was compared with two additional polypeptides, […] (SEQ ID NO:2) (the "HIV-1MEM" polypeptide), which is composed of the membrane translocation domain of FGF flanked by the NLS from the HIV-1 matrix protein and […] (SEQ ID NO:3) (the "C-MYCMEM" polypeptide), which contains the NLS from the human c-myc oncoprotein (Chelsky et al. (1989), supra, and Dang et al. (1988), supra) using murine 70Z/3 pre-B cells.
Murine 70Z/3 cells (ATCC TlD-158) are a model cell line for analyzing the effects of compounds on B-cell differentiation. In response to S. typhosa LPS (Difco) or γ-interferon, these cells differentiate from surface κ immunoglobulin negative to κ Ig positive.
[…] of: (1) a peptide containing only the FGF signal sequence AAVALLPAVLLALLAP (SEQ ID NO:4) (the "MEM" peptide); (2) a polypeptide having the FGF signal sequence and the NLS of NF-κB p50 on the carboxy terminus of the signal sequence, namely, the NF-κBMEM polypeptide; (3) the SV40MEM polypeptide comprised of L-amino acids; or (4) the SV40MEM polypeptide comprised of D-amino acids. The cells were then incubated with LPS as described in Example 2 and assayed for expression of κ light chain expression.

[3] = tested on: THP-1 human monocytic cells; experiment: LPS-stimulated cytokine (TNF-α, IL-8) production in THP-1 cells; format: cell-based; details: 5 μM, 5 hr LPS stimulation, FIG. 4A
Experimental: Amounts of TNF-α, IL-6, IL-8 and IL-10 were determined using the ELISA kits obtained from Genzyme following the manufacturer's instructions.
THP-1 control cells were harvested, washed and set up in RPMI 1640, 10% fetal calf serum, at a concentration of 2.56×10^6 cells/ml. Phosphate buffered saline ("PBS") or one of the two respective polypeptides SV40MEM or SV40 (a peptide having only the SV40 large T antigen NLS sequence) were added to the cells at a concentration of 10 μM or 20 μM. The cells were then plated into a 96-well plate with 0.1 ml/well. The plate was then incubated for 2 hr at 37° C. in a 5% CO2 atmosphere. Following the initial incubation, media or a titration of LPS was added to each of the wells in a volume of 0.1 ml. Thus, the final concentrations of polypeptides were 5 μM or 10 μM. Following 5 hr of LPS stimulation, supernatants were taken and TNF-α and IL-8 levels were determined by ELISA. In addition, cells treated with PBS or polypeptides, but not incubated with LPS, were removed at the time of supernatant removal to determine the viability of the cells following 7 hr of contact with the polypeptides.
This experiment was conducted to compare the inhibitory effect of the SV40MEM polypeptide and other inhibitory polypeptides on LPS induction of cytokine production. THP-1 control cells (ATCC 9/95 stock) were harvested, washed and set up in RPMI 1640, 10% fetal calf serum as described in Example 2. The cells were incubated for 2 hr with PBS or (1) the FGF signal sequence, (2) a polypeptide having the FGF signal sequence and the NLS of NF-κB p50 on the carboxy terminus of the signal sequence, (3) the SV40MEM polypeptide comprised of L-amino acids, or (4) the SV40MEM polypeptide comprised of D-amino acids at a final concentration of 5 μM. The cells were then plated into a 96-well plate with 0.1 ml/well. The plate was then incubated for 2 hr at 37° C. in a 5% CO2 atmosphere. Following the initial incubation, media or a titration of LPS was added to each of the wells in a volume of 0.01 ml/well. Following 5 hr of LPS stimulation, supernatants were taken and TNF-α levels were determined by ELISA.

[4] = tested on: Murine 70Z/3 B-cells; experiment: Proliferation of 70Z/3 murine B-cell leukemia cells; format: cell-based; details: 0.2 μM (lowest concentration), 48 hr, FIG. 9
Experimental: Murine 70Z/3 B-cells were treated with 0, 0.2, 0.5, 1, or 2 μM […] prepared from D-amino acids. On day 0, the cell concentrations of the control and treated cells were the same. After 48 hr of exposure to the peptide, the treated cells were again counted and compared to control cells.

[5] = tested on: Human RAJI B-cells; experiment: Proliferation of RAJI human B-cell leukemia cells; format: cell-based; details: 5 μM (lowest concentration), 48 hr, FIG. 10
Experimental: Human RAJI B-cells were treated with 0, 5, 10 or 25 μM SV40MEM prepared from D-amino acids. On day 0, the cell concentrations of the control and treated cells were the same. After 48 hr of exposure to the peptide, the treated cells were again counted and compared to control cells.

[6] = tested on: HIVLAI in Jurkat cells; experiment: Nuclear translocation of HIV genome in Jurkat cells infected with HIVLAI (gag and 2-LTR circle PCR); format: cell-based, HIV-1; details: SV40MEM 0.1 and 1.0 μM, NF-κBMEM 10 μM, 24 hr
Experimental: (§1) HIV-1 M1 p24 levels were assayed using the procedures described in Smithgall et al (1995) AIDS Res. and Human Retrovirus 11:885. Proviral DNA content (gag) was measured using polymerase chain reaction analysis as described in Smithgall et al. (1995), supra.
2-LTR circles, a strictly nuclear form of HIV-1 DNA the expression of which indicates nuclear localization of the viral genome, was measured by as described in Bukrinsky et al (1991) Science 254:423.
Jurkat cells were incubated with the SV40MEM polypeptide for 3 hr with HIVLAI for 1-2 hr. The virus was washed out and the cultures supplemented with the appropriate inhibitor (SV40MEM, 0.1,μM and 1.0 μM; NF-κBMEM, 10 μM). After 24 hr, the cells were collected, lysed and evaluated for HIV-1 DNA by polymerase chain reaction analysis of gag sequences (see FIG. 8A) and 2-LTR circles (see FIG. 8B).

[7] = tested on: HIV-1 primary isolate M1; experiment: Infection of anti-CD3 activated PBMCs with HIV-1 primary isolate M1; format: cell-based; details: seven days, compared to untreated but activated cultures
Experimental: as §1
PBMCs were obtained washed, cultured, and infected with HIV-1 as described in Dubrovsky et al. (1995) Mol. Med. 1:217-230). PBMCs from a seronegative donor were collected and depleted of CD8^+ T cells by negative selection. The cells were activated with an anti-CD3 monoclonal antibody prepared according to the method described in Wee et al. (1993) J. Exp. Med. 177:219 and incubated for 3 hr with the HIV-1MEM polypeptide. The cells were then incubated with M1 virus isolated from PBMC collected from HIV-infected donors in the presence of inhibitors for 2 hr. The virus was washed out, and the cultures supplemented with the appropriate inhibitor and allowed to incubate for seven days. Virus production was determined by measuring the p24 levels in the culture supernatant (FIG. 6B) and contrasted with the effect of the polypeptide on cell proliferation (FIG. 6A), which virus load was determined by polymerase chain reaction analysis of proviral DNA content (gag) (FIG. 6C). The MEM peptide represents the FGF membrane translocating portion of the HIV-1MEM polypeptide.

[8] = tested on: HIV-M1 virus in H9 human lymphoma T-cells; experiment: Infection of H9 T-cells with HIV-M1 virus (PCR of HIV-1 DNA); format: cell-based; details: 2 μM, 4 hr preincubation, day 3, FIG. 7
Experimental: as §1
(§2) H9 and Jurkat cells were incubated with the HIV-1MEM polypeptide (2,μM) or the control MEM peptide for 4 hr prior to addition of HIV-M1 virus. Cells were harvested on day 3 following injection and the level of HIV-1 DNA evaluated by polymerase chain reaction.

[9] = tested on: HIV-M1 virus in Jurkat human leukemia T-cells; experiment: Infection of Jurkat T-cells with HIV-M1 virus (PCR of HIV-1 DNA); format: cell-based; details: 2 μM, 4 hr preincubation, day 3, FIG. 7
Experimental: as §1, §2

binding of LPS to CD14 [1]: did not block binding
Molecule: AKRVKL [c-myc NLS, reference compound]

Molecule: CC(C)C[C@@H](NC(=O)[C@@H](C)NC(=O)[C@@H](CC(C)C)NC(=O)[C@@H](CC(C)C)NC(=O)[C@H](NC(=O)[C@@H](C)NC(=O)[C@H]1CCCN1C(=O)[C@@H](CC(C)C)NC(=O)[C@@H](CC(C)C)NC(=O)[C@@H](C)NC(=O)[C@H](NC(=O)[C@@H](C)NC(=O)[C@@H](C)NC(=O)[C@H](NC(=O)[C@@H](CCCCN)NC(=O)[C@@H](CCCNC(=N)N)NC(=O)[C@@H](CCCCN)NC(=O)[C@@H](CCCCN)NC(=O)[C@@H](CCCCN)NC(=O)[C@H]1CCCN1)C(C)C)C(C)C)C(C)C)C(=O)N[C@H](CC(C)C)C(=O)N[C@H](C)C(=O)N1CCC[C@@H]1C(=O)N[C@H](CCCCN)C(=O)N[C@H](CCCCN)C(=O)N[C@H](CCCCN)C(=O)N[C@H](CCCNC(=N)N)C(=O)N[C@H](CCCCN)C(=O)N[C@@H](C(=O)N[C@H](CS)C(N)=O)C(C)C [SV40MEM (D-amino acid form)] (H-[dP][dK][dK][dK][dR][dK][dV][dA][dA][dV][dA][dL][dL][dP][dA][dV][dL][dL][dA][dL][dL][dA][dP][dK][dK][dK][dR][dK][dV][dC]-NH2; N-terminus and C-terminus assumed)
potency and efficacy of L- versus D-amino acid form, LPS-stimulated κ Ig expression [2]: equally potent and efficacious | efficacy at inhibiting κ Ig light chain production (comparison of three polypeptides) ([2]; dose-response data, FIG. 1B): approximately equally efficacious | LPS-induced TNF-α expression [3]: significantly inhibited | proliferation (cell count versus control) [4]: inhibited | proliferation (cell count versus control) [5]: inhibited

Molecule: CSCC[C@H](NC(=O)[C@H](CC(C)C)NC(=O)[C@H](CCCCN)NC(=O)[C@H](CCC(N)=O)NC(=O)[C@H](CCCNC(=N)N)NC(=O)[C@H](CCCCN)NC(=O)[C@H](CCCNC(=N)N)NC(=O)[C@H](CCC(N)=O)NC(=O)[C@@H](NC(=O)[C@@H]1CCCN1C(=O)[C@H](C)NC(=O)[C@H](CC(C)C)NC(=O)[C@H](CC(C)C)NC(=O)[C@H](C)NC(=O)[C@H](CC(C)C)NC(=O)[C@H](CC(C)C)NC(=O)[C@@H](NC(=O)[C@H](C)NC(=O)[C@@H]1CCCN1C(=O)[C@H](CC(C)C)NC(=O)[C@H](CC(C)C)NC(=O)[C@H](C)NC(=O)[C@@H](NC(=O)[C@H](C)NC(=O)[C@H](C)N)C(C)C)C(C)C)C(C)C)C(=O)N1CCC[C@H]1C(N)=O [NF-κBMEM]
LPS-induced TNF-α expression [3]: did not significantly inhibit | viral internalization / virus entry (gag sequences) ([6]; FIG. 8A): no effect | translocation of the viral genome into the nucleus (2-LTR circles) ([6]; FIG. 8B): no effect

Molecule: PKKKRKVAAVALLPAVLLALLAPKKKRKVC-NH2 (C-terminus assumed) [SV40MEM (L-amino acid form)]
potency and efficacy of L- versus D-amino acid form, LPS-stimulated κ Ig expression [2]: equally potent and efficacious | LPS-induced TNF-α expression [3]: significantly inhibited

Molecule: KKKYKAAVALLPAVLLALLAKKKYKC [HIV-1MEM, membrane translocation domain of FGF flanked by the NLS from the HIV-1 matrix protein]
efficacy at inhibiting κ Ig light chain production (comparison of three polypeptides) ([2]; dose-response data, FIG. 1B): approximately equally efficacious | potency at inhibiting κ Ig light chain production compared with SV40MEM ([2]; dose-response data, FIG. 1B): not as potent | virus production (p24 levels in culture supernatant) ([7]; FIG. 6B): significantly reduced | virus load (PCR of proviral DNA content, gag) ([7]; FIG. 6C): significantly reduced | infection (level of HIV-1 DNA by PCR) [8]: inhibited infection | infection (level of HIV-1 DNA by PCR) [9]: inhibited infection

From patent US5962415A, “Compositions comprising a peptide inhibitor of nuclear protein translocation and an immunosuppressant and methods of use thereof” (Bristol-Myers Squibb Co., priority 1998, dated 1999)
